{"source": "patent US10746738B2", "about": "“Claudin-1 peptide reagents and methods” (THE REGENTS OF THE UNIVERSITY OF MICHIGAN, priority 2015, dated 2020)", "key": {"claudin-1 (CLDN1)": {"biological_target": "T1, claudin-1 (CLDN1) (Homo sapiens, UniProt O95832)", "T1 construct": "endogenous in cells; host or cells: SW620 human colorectal adenocarcinoma cells", "T1 sequence (O95832 1-211)": "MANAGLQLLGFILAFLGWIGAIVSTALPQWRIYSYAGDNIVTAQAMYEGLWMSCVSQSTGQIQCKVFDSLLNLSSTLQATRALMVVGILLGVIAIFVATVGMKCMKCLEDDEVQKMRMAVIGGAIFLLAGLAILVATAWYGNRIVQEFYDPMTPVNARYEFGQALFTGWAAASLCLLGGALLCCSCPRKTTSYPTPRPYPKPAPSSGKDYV", "experiment": "siRNA knockdown of CLDN1 expression, peptide and antibody binding to SW620 cells", "format": "cell-based", "method": "CLDN1 expression was knocked down using Dharmacon On-Target Plus SMARTpool Human CLDN1 siRNA (Thermo Scientific) according to the manufacturer's protocol. SW620 cells were plated overnight on coverslips in a 12-well plate at 0.2×10^6 cells/mL. The following day, cells were transfected with 3 μL DharmaFECT1 and either 25 nM CLDN1 or control siRNA. After 72 h, transfected cells were analyzed for CLDN1 expression through immunocytochemistry, a peptide binding study, or a Western blot of the cell lysate. For the immunocytochemistry experiment, cells were fixed with ice-cold methanol for 20 minutes at −20° C., blocked for 1 h at RT with PBS+2% BSA, stained with anti-human CLDN1 antibody at 5 μg/mL for 1 h at RT, then with goat anti-Rabbit AF488 (1:500) for 1 h at RT before being mounted on slides with DAPI with Prolong Gold. siRNA-transfected cells were also stained with 5 μM RTS-Cy5.5 or SPT-Cy5.5 for 30 minutes at 4° C., fixed with 4% PFA for 10 minutes at RT, then mounted on slides. Simultaneously, transfected cells were lysed with RIPA buffer containing Roche Mini-Complete EDTA-free Protease Inhibitor for 10 minutes on ice, collected and spun at 20,000×g for 10 minutes at 4° C. Supernatant was saved, total protein concentration quantified via a BCA assay, and 10 ug protein of each sample run on a Novex 4-20% 1.5 mm protein gel before transferring to a PVDF membrane. The membrane was blocked with PBST+5% non-fat milk for 1 h at 4° C., stained with either rabbit anti-CLDN1 Ab or mouse anti-tubulin Ab at 4° C. overnight, then with anti-rabbit HRP (1:500, for CLDN1) or anti-mouse HRP (1:500, for tubulin) for 1 h at RT before developing.\nThe specificity of peptide binding was validated on siRNA knockdown. […] These cells were transfected with siRNA to knockdown cell surface expression of claudin-1. […] The fluorescence intensities (mean±std) are shown (FIG. 2H). […] Given the experimental design and mean-squared-errors shown in FIG. 2H, with triplicate slides we have 98% power to obtain P<0.01 for interactions that show a 3-fold difference of differences."}, "colonic dysplasia": {"tested_on": "colonic dysplasia", "experiment": "In vivo fluorescence endoscopy of colon in CPC;Apc mouse", "conditions": "for fluorescence signal from dysplasia on endoscopy: CPC;Apc mouse colon", "description": "A genetically engineered mouse model (Cpc;Apc) that spontaneously forms adenomatous polyps in the colon was used for this study and handled according to Institutional Guidelines. The colons of anesthetized mice were first cleaned with water before imaging with a small animal endoscope (Karl Storz Veterinary Endoscope) using the white light channel to locate polyps by identifying anatomic landmarks and the distance of the endoscope tip from the anus. […] Fluorescent and reflectance images were then collected with the same endoscope set to the appropriate channels. Once in vivo imaging was complete, four of the mice used in the study were euthanized and colons harvested. Polyps and flat lesions detected during fluorescence imaging were located, removed, and processed for histology (H&E).\nThese mice are genetically-engineered to spontaneously develop colonic dysplasia, and the colonic lesions that develop are molecularly and histologically similar to that seen in human disease, making these mice a good model for monitoring cancer development. Because the extra-cellular domain of claudin-1 is completely homologous between human and mouse, peptides developed for human targets can be directly used in mouse imaging experiments. […] CPC;Apc mice were imaged at ˜3 months of age when they first begin to develop dysplasia. […] After imaging is completed, mice were euthanized, and the colons were resected. Based on the location of dysplastic lesions determined using fluorescence images collected with endoscopy, a pathologist measured the depth of dysplasia on histology, as shown by the dashed arrow in FIG. 7E. […] Images are obtained from mice over at least three sessions separated by 1 week to monitor for cancer progression."}, "T84 monolayers": {"tested_on": "T84 monolayers", "experiment": "Transepithelial electrical resistance (TEER) and tight junction immunofluorescence", "format": "cell-based, human", "method": "T84 human colon carcinoma cells were grown in a 1:1 mixture of DMEM and Ham's F-12 culture medium supplemented with 5% FBS. To establish polarized monolayer, the cells were plated on transwell permeable polyester supports (1.12 cm^2, pore size 3 μm, Costar) until they reached confluence after ˜3-4 days, as determined by an increase in TEER.43 The cells were continually grown on transwell supports until the TEER reached ˜2000 Ω-cm^2. […] TEER was then measured at 6, 12 and 24 hours. The cells were fixed with 4% PFA for 12 min. After brief washing, 1% SDS in PBS was used to permeabilize the cells. These procedures were followed by 3% goat serum in PBS blocking for 30 min. Mouse anti-zonula occludens-1 (anti-ZO-1) (1:250, Life Technologies) and rabbit anti-claudin-1 (1:200, Life Technologies) antibodies were diluted in block buffer and incubated in humidity box overnight at 4° C. and fluorescent secondary antibodies were diluted to 1:1000 and incubated for 1 hour at RT. All images were obtained using Nikon A1 confocal microscope (MIL, University of Michigan).\nWe evaluated the effect of peptide binding on tight junction function using a polarized monolayer of T84 cells plated on transwell supports."}, "SW620 cells": {"tested_on": "SW620 cells", "experiment": "Confocal signal and photostability of Cy5- versus FITC-labeled peptide on cells", "format": "cell-based, human", "conditions": "for mean (±std) fluorescence intensity: 10 μM, 4° C., 1 hour, n=6 cells", "method": "We incubated pep*-Cy5 (RTS*-Cy5) and pep*-FITC ([…]) (10 μM) (FIG. 4A) with human colon adenocarcinoma (SW620) cells that over-express Claudin-1 at 4° C. for 1 hour. A supercontinuum “white light” laser provided continuous excitation at 1.5 mW for both λex=647 and 488 nm. Confocal images (Leica TCS SP5 Microsystems) were collected using Cy5 and FITC filters every 2 min. At time 0 min, peptide (RTS*-Cy5) binding to the cell surface (arrow) is shown, scale bar 10 μm (FIG. 4B). The mean (±std) fluorescence intensities for the Cy5 and FITC-labeled peptides, measured from n=6 cells, were 58.4±3.7 and 3.1±0.6 A.U. respectively, resulting in ˜20-fold increase in signal using the NIR fluorophore. We also found a 8.5% reduction in fluorescence intensity for pep*-Cy5 in comparison to 32% for pep*-FITC at 12 min, resulting ˜4-fold improvement in photostability (FIG. 4C)."}, "human colonic tissues": {"tested_on": "human colonic tissues", "experiment": "Ex vivo staining of human colonic tissue sections", "method": "Human colon tissue was obtained through consenting patents at the University of Michigan Hospital. Tissue was frozen in OCT and sectioned 10 μm thick using a Cryostat. The sections were thawed before staining with 10 μM RTS*-Cy5 for 15 minutes at RT. Tissues were then washed with PBS, fixed with 4% PFA for 10 min at RT, and counterstained with DAPI with Prolong Gold. Fluorescence was imaged and quantified as outlined above.\nSpecimens of normal colonic mucosa, adenoma, and adenocarcinoma from the right side (proximal) of the colon were obtained from routine surveillance colonoscopy and surgically removed by endoscopic mucosal resection. The tissues were frozen in OCT (Sakura Finetek), cut in 10 μm sections, and incubated with pep*-Cy5 (5 μM) in 1×PBS for 15 minutes at RT. The sections were washed 3× with PBS. Confocal fluorescence images were collected from these sections with DAPI, FITC and Cy5 filter sets (Leica TCS SP5 Microsystems).\nThe mean fluorescence intensities (±SEM) from binding of pep*-Cy5 were measured for normal colonic mucosa (n=4, 7±2 AU), adenoma (n=6, 26±4 AU) and adenocarcinoma (n=5, 31±4 AU), P<0.001, unpaired t-test (FIG. 6, scale bar 500 μm). […] We found pep*-Cy5 and anti-claudin-1 mAb to stain colonic adenomas and adenocarcinomas in 11/12 (92%) and 10/10 (100%) sections, respectively."}, "[1]": {"tested_on": "human colonic adenocarcinoma cells (SW620, SW480, HT29, HCT116)", "experiment": "Cell binding assay on adenocarcinoma cell panel and co-localization with anti-claudin-1 antibody", "format": "cell-based", "method": "SW620, SW480, and HT29 cells were plated at 0.5×10^6 cells/mL on coverslips on 12-well plates. The following day, the cells were treated with either 10 μM either RTS*-Cy5.5 or SPT*-Cy5.5 for 1 h at 4° C., fixed with 4% PFA for 10 minutes at RT, then counterstained with DAPI with Prolong Gold. Fluorescent images were collected and analyzed as detailed above. Statistical analysis was performed using a one-way ANOVA analysis on GraphPad Prism.\nThe cells were incubated with the peptide (10 μM) at 4° C. for 1 hour, washed 3× with PBS, fixed with 4% PFA, and mounted with ProLong Gold containing DAPI (Invitrogen). The mean (±std) fluorescence intensities were quantified using custom Matlab software (FIG. 5F). Levels of claudin-1 expression from cytosol (C) and membrane (M) of cells are shown on western blot (FIG. 5G). The cells were then incubated with 1:50 dilution of primary anti-claudin-1 rabbit mAb (4267, Invitrogen) for 1 hour at 4° C., and washed 3× with PBS at RT. The cells were further incubated with 1:500 dilution of […] labeled with Alexa Fluor 488 (Invitrogen) for 1 hour at RT. Co-localization of peptide (red) and antibody (green) binding to SW620 cells can be appreciated on the overlay fluorescence image (FIG. 5H). A Pearson's correlation of ρ=0.56 was calculated using custom Matlab software."}, "[2]": {"conditions": "at 12 min of continuous excitation"}}, "note": "Ends that are not written are not given here. Cy5.5 = near infrared dye label"}
{"substance": "SPT*-Cy5.5: control scrambled sequence SPTPSSR labeled with Cy5.5 via the GGGSK linker (SPTPSSRGGGSK-{Cy5.5}) [reference compound]", "values": [{"measurement": "signal for siCL versus siCLDN1 cells", "setting": "claudin-1 (CLDN1); SW620 cells, control siRNA versus CLDN1 siRNA, 3 replicate slides", "value": 0.80, "unit": "fold-change"}, {"measurement": "binding to the surface of SW620 cells", "setting": "claudin-1 (CLDN1); confocal microscopy", "value": "minimal binding"}, {"measurement": "fluorescence signal from dysplasia on endoscopy", "setting": "colonic dysplasia", "value": "minimal signal"}]}
{"substance": "SPTPSSR [SPT*]", "values": [{"measurement": "trans-epithelial electrical resistance (TEER)", "setting": "T84 monolayers; 5 μM peptide, up to 24 hours", "value": "high"}, {"measurement": "effect on tight junction function and ZO-1 distribution", "setting": "T84 monolayers; 24 hours after peptide incubation", "value": "neither peptide alters tight junction function or ZO-1 distribution"}, {"measurement": "fluorescence signal from dysplasia on endoscopy", "setting": "colonic dysplasia", "value": "minimal signal"}, {"measurement": "T/B ratio (mean±SD)", "setting": "colonic dysplasia; n=10 dysplasias, topical 100 μM, 5 minutes", "value": "1.19±0.23"}]}
{"substance": "pep*-Cy5: RTSPSSR labeled at the C-terminus with Cy5 via a GGGSK linker", "values": [{"measurement": "mean (±std) fluorescence intensity", "setting": "SW620 cells", "value": "58.4±3.7", "unit": "A.U."}, {"measurement": "increase in signal using Cy5 label versus FITC", "setting": "SW620 cells; SW620 cells", "value": "~20", "unit": "fold"}, {"measurement": "improvement in photostability compared to FITC-labeled peptide", "setting": "SW620 cells; [2]", "value": "~4", "unit": "fold"}, {"measurement": "reduction in fluorescence intensity", "setting": "SW620 cells; [2]", "value": 8.5, "unit": "%"}, {"measurement": "mean fluorescence intensity (±SEM)", "setting": "human colonic tissues; adenocarcinoma, n=5", "value": "31±4", "unit": "AU"}, {"measurement": "sections stained", "setting": "human colonic tissues; adenocarcinomas, 10/10 sections", "value": 100, "unit": "%"}, {"measurement": "mean fluorescence intensity (±SEM)", "setting": "human colonic tissues; adenoma, n=6", "value": "26±4", "unit": "AU"}, {"measurement": "sections stained", "setting": "human colonic tissues; colonic adenomas, 11/12 sections", "value": 92, "unit": "%"}, {"measurement": "mean fluorescence intensity (±SEM)", "setting": "human colonic tissues; normal colonic mucosa, n=4", "value": "7±2", "unit": "AU"}, {"measurement": "binding to cell surface", "setting": "[1]; 10 μM, 4° C., 1 hour, control tested on SW620 cells", "value": "specific binding"}, {"measurement": "Pearson's correlation ρ, co-localization with anti-claudin-1 antibody", "setting": "[1]; SW620 cells", "value": 0.56}]}
{"substance": "pep*-FITC: RTSPSSR labeled at the C-terminus with FITC via a GGGSK linker", "values": [{"measurement": "mean (±std) fluorescence intensity", "setting": "SW620 cells", "value": "3.1±0.6", "unit": "A.U."}, {"measurement": "reduction in fluorescence intensity", "setting": "SW620 cells; [2]", "value": 32, "unit": "%"}]}
